Data published in the supplement of paper PMC4862054.

test system: HCC1937; settings: 72 h
Outline: (§1)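 Breast cancer cell lines in 20 µl suspension were seeded onto 384-well plates that already held compound dissolved in 5 µl medium and were incubated for 72 h. Viability was measured by adding 2.5 µl CellTiter-Blue for 2 h at 37 °C and reading fluorescence at 560/590 nm. Each plate was normalised to vehicle and a positive kill control and checked by Z'-factor. EC50 was taken from a fitted percent-inhibition dose-response curve, censored at the highest concentration, and rows with a drug sensitivity score of zero were removed.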

Row | EC50, CellTiter-Blue viability | SMILES
1 | 211 nM | CCCCC(=O)OCC(=O)[C@]1(O)Cc2c(O)c3c(c(O)c2[C@@H](O[C@H]2C[C@H](NC(=O)C(F)(F)F)[C@H](O)[C@H](C)O2)C1)C(=O)c1c(OC)cccc1C3=O [Valrubicin]

test system: MDA-MB-436; settings: 72 h
Outline: as §1

Row | EC50, CellTiter-Blue viability | SMILES
2 | 5.08 nM | O=C(/C=C/c1cccnc1)NCCCCC1CCN(C(=O)c2ccccc2)CC1 [FK-866]
3 | 3.72 nM | CC[C@@H]1C(=O)N(C)c2cnc(Nc3ccc(C(=O)NC4CCN(C)CC4)cc3OC)nc2N1C1CCCC1 [BI 2536]
4 | 4310 nM | O=C(O)C(=O)O.[NH-][C@@H]1CCCC[C@H]1[NH-].[Pt+2] [Oxaliplatin]
5 | 1290 nM | CCN(CC)CCCC(C)Nc1c2ccc(Cl)cc2nc2ccc(OC)cc12 (configuration not stated) [Mepacrine]
6 | 183 nM | Cc1ccc(-c2cc(C(F)(F)F)nn2-c2ccc(S(N)(=O)=O)cc2)cc1 [Celecoxib]
7 | 98.7 nM | Cc1cnc(NC(=O)Nc2cc(Br)c(C)cc2OC[C@@H]2CNCCO2)cn1
8 | 811 nM | C=CC(=O)Nc1cc2c(Nc3ccc(F)c(Cl)c3)ncnc2cc1OCCCN1CCOCC1 [Canertinib]
9 | 1520 nM | CCCCC(=O)OCC(=O)[C@]1(O)Cc2c(O)c3c(c(O)c2[C@@H](O[C@H]2C[C@H](NC(=O)C(F)(F)F)[C@H](O)[C@H](C)O2)C1)C(=O)c1c(OC)cccc1C3=O [Valrubicin]

test system: MCF-10A; settings: 72 h
Protocol: (§2)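 Drug sensitivity and resistance testing (DSRT) of breast cancer cell lines in 384-well plates, 5 concentrations in 10-fold dilutions over a compound-specific 10,000-fold range. After 72 h, cytotoxicity was read by CellTox Green fluorescence and viability by CellTiter-Glo luminescence (multiplexed), normalised to DMSO and benzethonium chloride controls. EC50 is the inflection point of the fitted dose-response curve (bottom asymptote free, so it can be relative for partial curves) and is censored at the highest tested concentration. Rows with DSS 0 (no meaningful response) were excluded.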

Row | SMILES | EC50, CellTox Green
10 | CC[C@@H]1C(=O)N(C)c2cnc(Nc3ccc(C(=O)NC4CCN(C)CC4)cc3OC)nc2N1C1CCCC1 [BI 2536] | 2.65 nM
11 | CC1=C(/C=C/C(C)=C/C=C/C(C)=C/C(=O)O)C(C)(C)CCC1 [Tretinoin] | 676 nM
12 | C=CC(=O)Nc1cc2c(Nc3ccc(F)c(Cl)c3)ncnc2cc1OCCCN1CCOCC1 [Canertinib] | 1690 nM

test system: CAL-85-1; settings: 72 h
Protocol: as §2

Row | SMILES | EC50, CellTox Green
13 | CC[C@@H]1C(=O)N(C)c2cnc(Nc3ccc(C(=O)NC4CCN(C)CC4)cc3OC)nc2N1C1CCCC1 [BI 2536] | 24.1 nM
14 | O=C(O)CCCCC(CCSCc1ccccc1)SCc1ccccc1 (configuration not stated) [CPI-613] | > 10000 nM
15 | Nc1ccccc1NC(=O)c1ccc(CNC(=O)OCc2cccnc2)cc1 [Entinostat] | 4310 nM
16 | C=CC(=O)Nc1cc2c(Nc3ccc(F)c(Cl)c3)ncnc2cc1OCCCN1CCOCC1 [Canertinib] | 1620 nM

test system: MDA-MB-468; settings: 72 h
Protocol: as §2

Row | SMILES | EC50, CellTox Green
17 | CC[C@H](C)C(=O)O[C@H]1C[C@H](O)C=C2C=C[C@H](C)[C@H](CC[C@@H](O)C[C@@H](O)CC(=O)O)[C@H]21 [Pravastatin] | 5470 nM
18 | CCN(CC)CCCC(C)Nc1c2ccc(Cl)cc2nc2ccc(OC)cc12 (configuration not stated) [Mepacrine] | > 50000 nM
19 | O=C(/C=C/c1cccnc1)NCCCCC1CCN(C(=O)c2ccccc2)CC1 [Daporinad] | 596 nM
20 | Nc1nc2[nH]cc(CCc3ccc(C(=O)N[C@@H](CCC(=O)O)C(=O)O)cc3)c2c(=O)[nH]1 [Pemetrexed] | 8620 nM
21 | CC[C@H](Nc1ncnc2[nH]cnc12)c1nc2cccc(F)c2c(=O)n1-c1ccccc1 [GS-1101] | 1430 nM
22 | Nc1ccccc1NC(=O)c1ccc(CNC(=O)OCc2cccnc2)cc1 [Entinostat] | 1230 nM
23 | C=CC(=O)Nc1cc2c(Nc3ccc(F)c(Cl)c3)ncnc2cc1OCCCN1CCOCC1 [Canertinib] | 3210 nM

test system: MFM-223; settings: 72 h
Protocol: as §2

Row | SMILES | EC50, CellTox Green
24 | CC[C@@H]1C(=O)N(C)c2cnc(Nc3ccc(C(=O)NC4CCN(C)CC4)cc3OC)nc2N1C1CCCC1 [BI 2536] | 2.41 nM
25 | Nc1ccccc1NC(=O)c1ccc(CNC(=O)OCc2cccnc2)cc1 [Entinostat] | 1440 nM
26 | C=CC(=O)Nc1cc2c(Nc3ccc(F)c(Cl)c3)ncnc2cc1OCCCN1CCOCC1 [Canertinib] | 6740 nM

test system: MDA-MB-231; settings: 72 h
Protocol: as §2

Row | SMILES | EC50, CellTox Green
27 | CC[C@@H]1C(=O)N(C)c2cnc(Nc3ccc(C(=O)NC4CCN(C)CC4)cc3OC)nc2N1C1CCCC1 [BI 2536] | 2.26 nM
28 | CCCS(=O)(=O)Nc1ccc(F)c(C(=O)c2c[nH]c3ncc(-c4ccc(Cl)cc4)cc23)c1F [Vemurafenib] | > 10000 nM
29 | Nc1nc2[nH]cc(CCc3ccc(C(=O)N[C@@H](CCC(=O)O)C(=O)O)cc3)c2c(=O)[nH]1 [Pemetrexed] | 2830 nM
30 | CC[C@H](Nc1ncnc2[nH]cnc12)c1nc2cccc(F)c2c(=O)n1-c1ccccc1 [GS-1101] | 8630 nM
31 | CC1=C(/C=C/C(C)=C/C=C/C(C)=C/C(=O)O)C(C)(C)CCC1 [Tretinoin] | 3200 nM
32 | Nc1ccccc1NC(=O)c1ccc(CNC(=O)OCc2cccnc2)cc1 [Entinostat] | 7140 nM
33 | C=CC(=O)Nc1cc2c(Nc3ccc(F)c(Cl)c3)ncnc2cc1OCCCN1CCOCC1 [Canertinib] | 4920 nM

test system: DU-4475; settings: 72 h
Protocol: as §2

Row | SMILES | EC50, CellTox Green
34 | CCCS(=O)(=O)Nc1ccc(F)c(C(=O)c2c[nH]c3ncc(-c4ccc(Cl)cc4)cc23)c1F [Vemurafenib] | 421 nM

test system: HDQ-P1; settings: 72 h
Protocol: as §2

Row | SMILES | EC50, CellTox Green
35 | C=CC(=O)Nc1cc2c(Nc3ccc(F)c(Cl)c3)ncnc2cc1OCCCN1CCOCC1 [Canertinib] | 3470 nM

test system: CAL-120; settings: 72 h
Protocol: as §2

Row | SMILES | EC50, CellTox Green
36 | CC[C@@H]1C(=O)N(C)c2cnc(Nc3ccc(C(=O)NC4CCN(C)CC4)cc3OC)nc2N1C1CCCC1 [BI 2536] | 120 nM
37 | C=CC(=O)Nc1cc2c(Nc3ccc(F)c(Cl)c3)ncnc2cc1OCCCN1CCOCC1 [Canertinib] | 6660 nM

test system: Hs578T; settings: 72 h
Protocol: as §2

Row | SMILES | EC50, CellTox Green
38 | CC[C@@H]1C(=O)N(C)c2cnc(Nc3ccc(C(=O)NC4CCN(C)CC4)cc3OC)nc2N1C1CCCC1 [BI 2536] | 419 nM
39 | N#Cc1ccc(C(c2ccc(C#N)cc2)n2cncn2)cc1 [Letrozole] | > 10000 nM
40 | Nc1nc2[nH]cc(CCc3ccc(C(=O)N[C@@H](CCC(=O)O)C(=O)O)cc3)c2c(=O)[nH]1 [Pemetrexed] | 9350 nM
41 | CC1=C(/C=C/C(C)=C/C=C/C(C)=C/C(=O)O)C(C)(C)CCC1 [Tretinoin] | 130 nM
42 | C=CC(=O)Nc1cc2c(Nc3ccc(F)c(Cl)c3)ncnc2cc1OCCCN1CCOCC1 [Canertinib] | 2850 nM
